Test results reported in US20250270209A1 (INTERLINE THERAPEUTICS, INC., priority 2022, published 2025).

Columns and labels:
[1] = molecular target: LRRK2 wild type enzyme (Homo sapiens, UniProt Q5S007); assay: Biochemical Assay: LRRK2 TR-FRET (LanthaScreen) kinase assay with LRRKtide substrate; conditions: LRRK2 Inhibition, Table 8
Description: 10 mM compound solution was prepared in DMSO. An 11-point, 3-fold dilution was performed, with highest concentration at 10 μM. A 10 mM compound DMSO solution was added to Labcyte LDV plate and the compound concentration of source plate was 10 mM. The 1st compound concentration of Inter plate(Labcyte 384 well PP plate) was 4.938×10^−1 mM which was prepared by transferring 1.5 μL of 10 mM compound from source plate to 28.9 μL DMSO. The 2nd compound concentration of Inter plate was 1.829×10^−2 mM which was prepared by transferring 60 nL of 10 mM compound from source plate to 32.7 μL DMSO. The 3rd compound concentration of Inter plate was 6.774×10^−4 mM which was prepared by transferring 2.5 nL of 10 mM compound from source plate to 36.9 μL DMSO. 100 nL of reference compound was dispensed in column 1 for low control wells and 100 nL of DMSO in column 24 for high control wells. Compounds were dispensed to column 2 to 23 of assay plate and backfilled with DMSO to a total volume of 100 nL.
A 2X LRRK2 enzyme solution (final concentration 3 nM) was prepared in assay buffer (Tris-HCl pH8.0:50 mM, MgCl2: 5 mM, EDTA: 1 mM, Brij-35:0.01%, 2 mM DTT). A 2× substrate solution was prepared: LRRK2 tide substrate (final concentration 400 nM) and ATP (final concentration 25 μM) in assay buffer. 5 μL 2× LRRK2 enzyme solution was dispensed to each well in assay plate by Multidrop. Assay plate was spun at 1,000 rpm for 1 min and incubated for 15 min at 23° C. 5 μL 2× ATP/LRRKtide solution was dispensed to each well in assay plate by Multidrop. Assay plate was spun at 1,000 rpm for 1 min and incubated for 120 min at 23° C.
(§1) A 2× detection solution was prepared: Tb-pERM (pLRRKtide) antibody (final concentration 0.25 nM) and EDTA (final concentration 10 mM) in TR-FRET dilution buffer. 10 μL 2× detection solution was dispensed to each well in assay plate to stop kinase reaction by Multidrop. Assay plate was spun at 1,000 rpm for 1 min and incubate for 30 min at 23° C. Assay plate was then read on Envision configured for LanthaScreen® TR-FRET. pS935 LRRK2 Cell Assay

[2] = molecular target: T1, wild type LRRK2 overexpressed in recombinant HEK-293T cells (Homo sapiens, UniProt Q5S007); assay: pS935 LRRK2 Cell Assay (HTRF, phospho-LRRK2 Ser935); type: cell-based; conditions: LRRK2 Inhibition, Table 8, 2 hours compound incubation
T1 construct: host or cells: HEK293T (transient transfection with pCMV-LRRK2 WT plasmid)
T1 sequence (Q5S007 whole entry): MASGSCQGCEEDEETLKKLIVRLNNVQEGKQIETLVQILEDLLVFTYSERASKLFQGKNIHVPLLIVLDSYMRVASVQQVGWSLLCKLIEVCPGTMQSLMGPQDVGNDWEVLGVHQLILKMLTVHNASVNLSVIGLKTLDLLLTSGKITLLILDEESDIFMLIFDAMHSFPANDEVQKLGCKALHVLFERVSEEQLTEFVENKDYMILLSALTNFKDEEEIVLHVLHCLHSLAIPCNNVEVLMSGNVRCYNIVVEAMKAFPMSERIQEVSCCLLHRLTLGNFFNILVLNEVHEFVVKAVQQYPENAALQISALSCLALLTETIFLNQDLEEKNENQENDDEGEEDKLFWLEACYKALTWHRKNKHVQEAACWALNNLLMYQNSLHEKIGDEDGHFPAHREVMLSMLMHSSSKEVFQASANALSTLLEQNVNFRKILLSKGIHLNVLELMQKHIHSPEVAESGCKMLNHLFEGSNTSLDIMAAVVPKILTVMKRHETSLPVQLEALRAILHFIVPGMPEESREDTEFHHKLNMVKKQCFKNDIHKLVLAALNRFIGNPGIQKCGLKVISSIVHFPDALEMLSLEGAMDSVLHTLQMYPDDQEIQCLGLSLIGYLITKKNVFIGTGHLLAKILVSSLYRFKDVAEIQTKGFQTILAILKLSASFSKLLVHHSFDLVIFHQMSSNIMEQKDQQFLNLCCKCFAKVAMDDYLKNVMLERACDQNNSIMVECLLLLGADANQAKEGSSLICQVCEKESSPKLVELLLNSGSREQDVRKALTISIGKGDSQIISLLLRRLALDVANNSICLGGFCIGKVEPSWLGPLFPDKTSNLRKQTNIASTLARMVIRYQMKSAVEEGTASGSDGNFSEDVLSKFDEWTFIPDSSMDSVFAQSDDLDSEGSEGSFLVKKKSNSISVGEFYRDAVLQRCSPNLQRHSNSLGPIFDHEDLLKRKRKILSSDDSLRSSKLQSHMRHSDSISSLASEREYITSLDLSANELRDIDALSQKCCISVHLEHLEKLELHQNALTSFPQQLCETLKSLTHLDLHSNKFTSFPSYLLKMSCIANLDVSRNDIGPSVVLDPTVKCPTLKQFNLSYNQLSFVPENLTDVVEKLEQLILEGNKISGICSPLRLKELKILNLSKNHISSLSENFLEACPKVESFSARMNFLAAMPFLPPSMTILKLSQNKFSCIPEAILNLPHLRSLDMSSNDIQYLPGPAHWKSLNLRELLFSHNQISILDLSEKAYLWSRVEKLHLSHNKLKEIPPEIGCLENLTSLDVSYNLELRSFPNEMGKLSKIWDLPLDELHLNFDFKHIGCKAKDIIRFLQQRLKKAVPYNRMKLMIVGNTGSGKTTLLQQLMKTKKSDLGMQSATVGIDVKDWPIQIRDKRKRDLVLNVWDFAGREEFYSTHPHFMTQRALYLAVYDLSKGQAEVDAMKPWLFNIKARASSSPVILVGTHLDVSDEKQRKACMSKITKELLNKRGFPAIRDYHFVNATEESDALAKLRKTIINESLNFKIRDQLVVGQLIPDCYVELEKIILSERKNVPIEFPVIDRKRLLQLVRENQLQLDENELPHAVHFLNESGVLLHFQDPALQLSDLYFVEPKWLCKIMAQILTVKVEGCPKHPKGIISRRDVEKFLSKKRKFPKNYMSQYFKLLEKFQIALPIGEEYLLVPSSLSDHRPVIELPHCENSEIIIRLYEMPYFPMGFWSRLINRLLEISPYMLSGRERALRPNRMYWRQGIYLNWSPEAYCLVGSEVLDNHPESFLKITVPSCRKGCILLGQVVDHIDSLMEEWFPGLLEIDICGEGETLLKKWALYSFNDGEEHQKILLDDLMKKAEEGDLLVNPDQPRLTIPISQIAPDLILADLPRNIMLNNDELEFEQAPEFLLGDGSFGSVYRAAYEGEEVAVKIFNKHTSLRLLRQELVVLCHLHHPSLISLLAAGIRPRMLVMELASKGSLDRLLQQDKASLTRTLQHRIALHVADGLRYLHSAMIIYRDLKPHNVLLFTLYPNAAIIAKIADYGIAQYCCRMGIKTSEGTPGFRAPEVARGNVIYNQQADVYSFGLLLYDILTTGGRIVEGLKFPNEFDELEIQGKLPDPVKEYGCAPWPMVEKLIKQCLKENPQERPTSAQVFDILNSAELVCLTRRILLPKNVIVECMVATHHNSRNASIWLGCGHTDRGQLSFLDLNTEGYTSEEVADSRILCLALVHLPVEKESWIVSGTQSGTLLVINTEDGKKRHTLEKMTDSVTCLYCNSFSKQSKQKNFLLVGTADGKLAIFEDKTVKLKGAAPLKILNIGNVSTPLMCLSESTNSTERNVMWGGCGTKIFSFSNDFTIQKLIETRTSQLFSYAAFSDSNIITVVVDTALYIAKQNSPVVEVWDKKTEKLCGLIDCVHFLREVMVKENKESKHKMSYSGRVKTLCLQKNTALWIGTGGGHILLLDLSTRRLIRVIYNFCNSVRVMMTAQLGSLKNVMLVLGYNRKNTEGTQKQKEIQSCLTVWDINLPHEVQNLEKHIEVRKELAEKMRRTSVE
Description: as §1
The following protocol describes an in-vitro method for measuring phosphorylation at Ser935 on wild type LRRK2 overexpressed in recombinant HEK-293T cells. The method is based on HTRF technology, which combines Fluorescence Resonance Energy Transfer (FRET) with Time-Resolved measurement (TR). Phospho-LRRK2 (Ser935) is detected in a sandwich assay format using two different specific antibodies, one labelled with Eu3+-Cryptate (donor) and the second with d2(acceptor).When the fluorophores are in close proximity, excitation of the donor with a light source (flash lamp) stimulates FRET to the acceptor, which in turn fluoresces at a specific wavelength (665 nm). The fluorescence emission at 615 nm from the donor is also measured to allow ratiometric reduction of data. The specific signal is proportional to phospho-LRRK2 (Ser935).
Plasmid transient transfection: DMEM medium, FBS, DPBS, Trans-IT, OPTI-MEM reagents were allowed to warm to room temperature. HEK293T cells were cultured in DMEM +10% FBS complete medium in T150 flasks till around 80% confluency before transfection. Then cells were washed with 10 mL PBS and detached with 3 mL 0.25% typinsin. 30×10E6 HEK293T cells were seeded in DMEM +10% FBS complete medium to a 15 cm dish.
DNA, TransIT-LT1, OPTI-MEM complex were prepared: […] OPTI-MEM was added to a 15 mL cone tube, then […] plasmid was added to OPTI-MEM and mixed, followed by addition of 60 μL TransIT-LT1 to the plasmid OPTI-MEM mixture and mixing. The resulting mixture was incubated for 15 minutes.
The above plasmid, DNA and OPTI-MEM mixture was added dropwise to the 15 cm dish, ensuring the drops were evenly distributed. The culture dish was gently rocked back and forth and from left to right to evenly distribute the complex. The tranfected dish was incubated for 24 hours at 37° C., and 5% CO2.
Transfected HEK293T was collected in the 15 cm dish. Media was aspirated from tissue culture dish, and washed by dispensing 10 mL 1× DPBS into 15 cm dish. 1× DPBS was aspirated and 3 mL trypsin was dispensed to 15 cm dish. The dish was incubated with trypsin at room temperature for 3 min until the cells were detached. 10 mL of DMEM +10% FBS medium were added to 15 cm dish and triturated to ensure homogenous cell suspensions.
Homogenous cell suspensions were transferred to a 50 mL tube, and centrifuged for 5 minutes at 1,000 rmp/min. The supernatant was aspirated and resuspended with 20 mL complete medium. 1 mL of cell suspension was transferred for cell counting. The cell suspension was diluted to 2× 10E5 cells/ml. 50 μL cell suspensions were added to a 384-well plate. The plate was quick spun at 800 rpm for 1 minute, then incubate overnight at 37° C., 5% CO2.
Compound dispensing: compound was diluted (10 mM DMSO stock solution) and added to assay plate (top concentration: 10 μM, 3 fold serial dilution, 9 doses) with duplicates by Tecan liquid handler. The DMSO concentration of each well was normalized to 0.2%. Plates were quick spun at 1,000 rpm for 1 minute. Plates were incubated at 37° C., 5% CO2 for 2 hours.
1× lysis buffer solution supplemented with blocking reagent was prepared (e.g. 1 mL lysis buffer 4X+3 mL water+40 μL stock blocking reagent 100X). Antibodies working solution was prepared by diluting 40-fold d2 and Cryptate antibodies with detection buffer(e.g. 1520 μL detection buffer+40 μL d2-antibody stock solution+[…] Cryptate-antibody stock solution).
After 2 hours incubation, cell plates were taken out from the incubator. […]

LRRK2 wild type enzyme, sequence (Q5S007 whole entry): as above

Structure (SMILES) | IC50 [1] | IC50 [2]
C[C@@H]1C[C@H](n2c(C3CC(=O)N(C)C3)nc3cnc4ccc(C#N)cc4c32)CCO1 (mixture of isomers) [Compound 53, 2-[(3RS)-1-methyl-5-oxopyrrolidin-3-yl]-1-[(2R,4R)-2-methyloxan-4-yl]-1H-imidazo[4,5-c]quinoline-8-carbonitrile] | 3.16 nM | 666 nM
C[C@@H]1C[C@H](n2c(C3CC(=O)N(Cc4cccnc4)C3)nc3cnc4ccc(C#N)cc4c32)CCO1 (mixture of isomers) [Compound 57, 1-[(2R,4R)-2-methyloxan-4-yl]-2-[(3RS)-5-oxo-1-[(pyridin-3-yl)methyl]pyrrolidin-3-yl]-1H-imidazo[4,5-c]quinoline-8-carbonitrile] | 0.958 nM | 216 nM
C[C@@H]1C[C@H](n2c(C3CC(=O)N(Cc4cnn(C)c4)C3)nc3cnc4ccc(C#N)cc4c32)CCO1 (mixture of isomers) [Compound 58, 2-[(3RS)-1-[(1-methyl-1H-pyrazol-4-yl)methyl]-5-oxopyrrolidin-3-yl]-1-[(2R,4R)-2-methyloxan-4-yl]-1H-imidazo[4,5-c]quinoline-8-carbonitrile] | 1.6 nM | 931 nM
C[C@@H]1C[C@H](n2c(C3CC(=O)N(c4cnn(C)c4)C3)nc3cnc4ccc(C#N)cc4c32)CCO1 (mixture of isomers) [Compound 59, 2-[(3RS)-1-(1-methyl-1H-pyrazol-4-yl)-5-oxopyrrolidin-3-yl]-1-[(2R,4R)-2-methyloxan-4-yl]-1H-imidazo[4,5-c]quinoline-8-carbonitrile] | 1.06 nM | 118 nM
C[C@@H]1C[C@H](n2c(C3CC(=O)N(Cc4ccccn4)C3)nc3cnc4ccc(C#N)cc4c32)CCO1 (mixture of isomers) [Compound 61, 1-[(2R,4R)-2-methyloxan-4-yl]-2-{5-oxo-1-[(pyridin-2-yl)methyl]pyrrolidin-3-yl}-1H-imidazo[4,5-c]quinoline-8-carbonitrile] | 1.09 nM | 89.2 nM
C[C@@H]1C[C@H](n2c(C3CC(=O)N(C4CCOCC4)C3)nc3cnc4ccc(C#N)cc4c32)CCO1 (mixture of isomers) [Compound 64, 1-[(2R,4R)-2-methyloxan-4-yl]-2-[1-(oxan-4-yl)-5-oxopyrrolidin-3-yl]-1H-imidazo[4,5-c]quinoline-8-carbonitrile] | 3.71 nM | 313 nM
C[C@@H]1C[C@H](n2c(C3CC(=O)N(CC4CC4)C3)nc3cnc4ccc(C#N)cc4c32)CCO1 (mixture of isomers) [Compound 69, 2-[(3RS)-1-(cyclopropylmethyl)-5-oxopyrrolidin-3-yl]-1-[(2R,4R)-2-methyloxan-4-yl]-1H-imidazo[4,5-c]quinoline-8-carbonitrile] | 2.28 nM | 182 nM
C[C@@H]1C[C@H](n2c(C3CC(=O)N(Cc4cccnc4)C3)nc3cnc4ccc(C#N)cc4c32)CCO1 (single isomer, unassigned) [Compound 30, 1-[(2R,4R)-2-methyloxan-4-yl]-2-[(3R*)-5-oxo-1-[(pyridin-3-yl)methyl]pyrrolidin-3-yl]-1H-imidazo[4,5-c]quinoline-8-carbonitrile] | 0.567 nM | 41.3 nM
C[C@@H]1C[C@H](n2c(C3CC(=O)N(Cc4cccnc4)C3)nc3cnc4ccc(C#N)cc4c32)CCO1 (single isomer, unassigned) [Compound 31, 1-[(2R,4R)-2-methyloxan-4-yl]-2-[(3R*)-5-oxo-1-[(pyridin-3-yl)methyl]pyrrolidin-3-yl]-1H-imidazo[4,5-c]quinoline-8-carbonitrile] | 26.4 nM | –
C[C@@H]1C[C@H](n2c(CN3CCC(C(=O)O)CC3)nc3cnc4ccc(C#N)cc4c32)CCO1 [Compound 76, 1-({8-cyano-1-[(2R,4R)-2-methyloxan-4-yl]-1H-imidazo[4,5-c]quinolin-2-yl}methyl)piperidine-4-carboxylic acid] | 109 nM | –
Cn1cc(-n2c(CC(=O)NCC3CC3)nc3cnc4ccc(C#N)cc4c32)ccc1=O [Compound 92, 2-[8-cyano-1-(1-methyl-6-oxo-1,6-dihydropyridin-3-yl)-1H-imidazo[4,5-c]quinolin-2-yl]-N-(cyclopropylmethyl)acetamide] | > 1000 nM | –
C[C@@H]1C[C@H](n2c([C@@H]3CCN(S(=O)(=O)c4cnn(C)c4)C3)nc3cnc4ccc(C#N)cc4c32)CCO1 [Compound 128, 2-[(3R)-1-[(1-methyl-1H-pyrazol-4-yl)sulfonyl]pyrrolidin-3-yl]-1-[(2R,4R)-2-methyloxan-4-yl]-1H-imidazo[4,5-c]quinoline-8-carbonitrile] | 10 nM | –
C[C@@H]1C[C@H](n2c([C@@H]3CCN(C(=O)c4cccnn4)C3)nc3cnc4ccc(C#N)cc4c32)CCO1 [Compound 129, 1-[(2R,4R)-2-methyloxan-4-yl]-2-[(3R)-1-(pyridazine-3-carbonyl)pyrrolidin-3-yl]-1H-imidazo[4,5-c]quinoline-8-carbonitrile] | 2.47 nM | –
C[C@@H]1C[C@H](n2c([C@@H]3CCN(C(=O)c4cnn(C)c4)C3)nc3cnc4ccc(C#N)cc4c32)CCO1 [Compound 130, 2-[(3R)-1-(1-methyl-1H-pyrazole-4-carbonyl)pyrrolidin-3-yl]-1-[(2R,4R)-2-methyloxan-4-yl]-1H-imidazo[4,5-c]quinoline-8-carbonitrile] | 6.71 nM | –
Cn1cc(-n2c(C3CC(=O)N(CC4CC4)C3)nc3cnc4ccc(C#N)cc4c32)ccc1=O (stereo not shown) [Compound 137, 2-[1-(cyclopropylmethyl)-5-oxopyrrolidin-3-yl]-1-(1-methyl-6-oxo-1,6-dihydropyridin-3-yl)-1H-imidazo[4,5-c]quinoline-8-carbonitrile] | > 1000 nM | –
Cc1cc(-n2c(CC(=O)NCC3CC3)nc3cnc4ccc(C#N)cc4c32)ccn1 [Compound 138, 2-[8-cyano-1-(2-methylpyridin-4-yl)-1H-imidazo[4,5-c]quinolin-2-yl]-N-(cyclopropylmethyl)acetamide] | > 1000 nM | –
C[C@@H]1C[C@H](n2c(CC(=O)NCC3CC3)nc3cnc4ccc(C(=O)N(C)C)cc4c32)CCO1 [Compound 144, 2-{[(cyclopropylmethyl)carbamoyl]methyl}-N,N-dimethyl-1-[(2R,4R)-2-methyloxan-4-yl]-1H-imidazo[4,5-c]quinoline-8-carboxamide] | > 1000 nM | –
